Literature values, collected in PMC9737391, “Trifluoromethylcinnamanilide Michael Acceptors for Treatment of Resistant Bacterial Infections” (International Journal of Molecular Sciences, 2022).

System: NF-κB
Parameters: method as in PMID 31835703
Conditions: compared with prednisone; cited from earlier work

For `O=C(/C=C/c1ccccc1)Nc1cc(C(F)(F)F)ccc1Cl` [3g], the “anti-inflammatory potential (NF-κB inhibition)” value is given as “comparable to that prednisone”.
